Values after ≈ are worked out from the molar mass of the structure shown. Ends that are not written are not given here.
Legend:
CaEs-17 = experiment: cells; format: cell-based; details: Homo sapiens, CaEs17
Bel7402 = experiment: cells; format: cell-based; details: Homo sapiens, Bel-7402
A431 = experiment: cells; format: cell-based; details: Homo sapiens, A-431
A549 = experiment: cells; format: cell-based; details: Homo sapiens
HeLa = experiment: cells; format: cell-based; details: Homo sapiens
HCT-8 = experiment: cells; format: cell-based; details: Homo sapiens
BGC-823 = experiment: cells; format: cell-based; details: Homo sapiens
Hep-2 = experiment: cells; format: cell-based; details: Homo sapiens
Ketr-3 = experiment: cells; format: cell-based; details: Homo sapiens, KETR3
EJ = experiment: cells; format: cell-based; details: Homo sapiens
MCF-7 = experiment: cells; format: cell-based; details: Homo sapiens, MCF7
PC-3M = experiment: cells; format: cell-based; details: Homo sapiens
HELF = experiment: cells; format: cell-based; details: Homo sapiens
Tca83 = experiment: cells; format: cell-based; details: Homo sapiens
KB = experiment: cells; format: cell-based; details: Homo sapiens
S180 sarcoma = test system: S180 sarcoma; set-up: species or system mice; details: mouse, in vivo
H22 hepatic carcinoma = test system: H22 hepatic carcinoma; set-up: species or system mice; details: mouse, in vivo
mononuclear phagocytes = test system: mononuclear phagocytes; set-up: species or system mice; details: mouse, in vivo
[1] = set-up: species or system mice; details: mouse, in vivo

Compound: O=c1[nH]cc(F)c(=O)[nH]1 [Fluorouracil]
- IC50 (CaEs-17): 0.757 ± 0.0254 µg/mL (≈ 5.82 µM)
- IC50 (Bel7402): 0.718 ± 0.0067 µg/mL (≈ 5.52 µM)
- IC50 (A431): 0.174 ± 0.0447 µg/mL (≈ 1.34 µM)
- IC50 (A549): 0.425 ± 0.034 µg/mL (≈ 3.27 µM)
- IC50 (HeLa): 0.613 ± 0.05 µg/mL (≈ 4.71 µM)
- IC50 (HCT-8): 0.605 ± 0.0278 µg/mL (≈ 4.65 µM)
- IC50 (BGC-823): 0.632 ± 0.0572 µg/mL (≈ 4.86 µM)
- IC50 (Hep-2): 4.88 ± 2.22 µg/mL (≈ 37.5 µM)
- IC50 (Ketr-3): 0.634 ± 0.0147 µg/mL (≈ 4.87 µM)
- IC50 (EJ): 3.69 ± 0.909 µg/mL (≈ 28.4 µM)
- IC50 (MCF-7): 0.646 ± 0.0437 µg/mL (≈ 4.97 µM)
- IC50 (PC-3M): 1.49 ± 1.07 µg/mL (≈ 11.4 µM)
- IC50 (HELF): 0.087 ± 0.004 µg/mL (≈ 0.669 µM)
- IC50 (Tca83): 0.924 ± 0.0435 µg/mL (≈ 7.1 µM)
- IC50 (KB): 0.66 ± 0.0085 µg/mL (≈ 5.07 µM)

Compound: RKDVY [thymopentin]
- pathological picture of tumor tissue (S180 sarcoma): a few tumor cells were necrotic and degenerative
- pathological picture of tumor tissue (H22 hepatic carcinoma): a little of tumor cell necrosis and degeneration

Compound: O=P1(N(CCCl)CCCl)NCCCO1 (stereo not shown) [Cyclophosphamide]
- Index of phagocytosis, K (mononuclear phagocytes): 0.0744 ± 0.0081
- Phagocytosis activity, α (mononuclear phagocytes): 4.4614 ± 0.2413
- pathological picture of tumor tissue (S180 sarcoma): necrotic and degenerated tissue scattered
- pathological picture of tumor tissue (H22 hepatic carcinoma): necrotic and degenerated tissue scattered

Compound: Thymosin Alpha-1 (SDAAVDTSSEITTKDLKEKKEVVEEAEN; not fully specified (N-terminus); ends and bridges not checked; UniProt P06454 2-29, looked up) [biological drug, registration No. H20050339]
- Index of phagocytosis, K (mononuclear phagocytes): 0.3473 ± 0.0130
- Phagocytosis activity, α (mononuclear phagocytes): 7.9583 ± 0.5069
- Elongation index [1]: 37.5%
- Swimming time [1]: 18.9 ± 2.98 min

From patent publication US20080187556A1 (priority 2005, published 2008)
